Laboratory results: US20120040898A1, “PHARMACEUTICAL COMPOSITIONS” (TAISHO PHARMACEUTICAL CO., LTD, priority 2009, published 2012)
Counter-ions that a name gives are not always drawn.

Tests used:
Type in all cases: in vivo
Zucker fatty rats [1] = test: Combination treatment of compound A and acarbose in diabetic rats (soluble starch loading); details: fasted Zucker fatty rats; single oral dose compound A 1 mg/kg, acarbose 1 mg/kg, alone or combined; soluble starch 2 g/kg one minute later; up to 120 minutes; mean ± standard error
Procedure: Six male Zucker fatty rats (11-week old) were fasted and orally administered with single doses of compound A (1 mg/kg) and an α-glucosidase inhibitor, acarbose (1 mg/kg), either alone or in combination. […] Wako Pure Chemical Industries, Ltd.)

db/db mice [2] = test: Chronic combination treatment of compound A and metformin hydrochloride in diabetic mice; details: mean ± standard error; for Change in GHb (%) / Change in plasma IRI level: 27 days; for Fasting plasma glucose level: after 27 days, fasted 16 hours; for Change in plasma IRI level: non-fasting
[3] = system: high-fat diet loaded mice with STZ-induced diabetes mellitus; test: Combination treatment of compound A and glipizide in diabetic mice; details: high-fat diet STZ diabetic ICR mice, non-fasting; single oral dose compound A 1 mg/kg, glipizide 10 mg/kg, alone or combined; up to 8 hours; mean ± standard error
Procedure: After 3 weeks a high-fat diet (D12492 of Research Diets, Inc.) feeding, ICR mice (CHARLES RIVER LABORATORIES JAPAN, INC.) were intraperitoneally administered streptozocin (SIGMA-ALDRICH JAPAN K.K.; hereinafter abbreviated as STZ) to induce diabetes. […] SIGMA-ALDRICH JAPAN K.K.), either alone or in combination. Blood was taken from the tail vein of each mouse at specified time intervals and plasma glucose levels were measured by GOD colorimetry with a self-testing glucose measuring instrument (Medisafe Mini GR-102; TERUMO CORPORATION, Japan).

KKAy mice [4] = test: Combination treatment of compound A and glimepiride in diabetic mice; details: non-fasting, single oral dose compound A 10 mg/kg, glimepiride 0.5 mg/kg, alone or combined, up to 3 hours, mean ± standard error
Procedure: (§1) CLEA Japan, Inc.) and 10 female C57BL mice/group (normal mice; 4-week old; CLEA Japan, Inc.) were orally administered with single doses of compound A (10 mg/kg) and an insulin secretagogue, glimepiride (0.5 mg/kg; SIGMA-ALDRICH JAPAN K.K.), either alone or in combination. Blood was taken from the tail vein of each mouse at specified time intervals and plasma glucose levels were measured by the GDH electrode method with a self-testing glucose measuring instrument (Glutest Neo Super; […] CO., LTD.)

C57BL mice = test: Combination treatment of compound A and glimepiride in normal mice; details: normoglycemic C57BL mice, non-fasting; single oral dose compound A 10 mg/kg, glimepiride 0.5 mg/kg, alone or combined; up to 3 hours; mean ± standard error
Procedure: as §1

KKAy mice [5] = test: Chronic combination treatment of compound A and glimepiride in diabetic mice; details: non-fasting, compound A 0.03% mixed diet, glimepiride 0.5 mg/kg once daily, alone or combined, one hour after drug administration, mean ± standard error
Procedure: Seven or eight female KKAy mice/group (4-week old; CLEA JAPAN, Inc.) were orally administered with repeated doses of compound A (0.03% mixed diet; ad libitum) and an insulin secretagogue, glimepiride (0.5 mg/kg, once daily; SIGMA-ALDRICH JAPAN K.K.), either alone or in combination, for 8 weeks. […] Plasma glucose levels were measured by the GDH electrode method with a self-testing glucose measuring instrument (Glutest Neo Super; […]

[6] = system: high-fat diet loaded mice with STZ-induced diabetes mellitus; test: Combination treatment of compound A and glibenclamide in diabetic mice; details: high-fat diet STZ diabetic ICR mice, non-fasting; single oral dose compound A 1 mg/kg, glibenclamide 10 mg/kg, alone or combined; up to 8 hours; mean ± standard error
Source text: After 3 weeks a high-fat diet (D12492 of Research Diets, Inc.) feeding, ICR mice (CHARLES RIVER LABORATORIES JAPAN, INC.) were intraperitoneally administered with streptozocin (SIGMA-ALDRICH JAPAN K.K.; hereinafter abbreviated as STZ) to induce diabetes. […] SIGMA-ALDRICH JAPAN K.K.), either alone or in combination. Blood was taken from the tail vein of each mouse at specified time intervals and centrifuged to collect plasma. […] Wako Pure Chemical Industries, Ltd.)

db/db mice [7] = test: Chronic combination treatment of compound A and pioglitazone in diabetic mice; details: compound A 3 mg/kg, pioglitazone 10 mg/kg, once daily oral, alone or combined, 27 days, mean ± standard error; for Change in GHb (%): after minus before; for Change in plasma IRI level: non-fasting
[8] = system: rats with STZ-induced diabetes mellitus; test: Combination treatment of compound A and insulin in diabetic rats; details: STZ diabetic SD rats, non-fasting; single oral dose compound A 1 mg/kg, subcutaneous slow-release insulin implant (one pellet), alone or combined; up to 8 hours; mean ± standard error
Source text: SD rats (7-week old; CHARLES RIVER LABORATORIES JAPAN, INC.) were intraperitoneally administered with streptozocin (SIGMA-ALDRICH JAPAN K.K.; hereinafter abbreviated as STZ) to induce diabetes. The rats with STZ-induced diabetes mellitus (8-week old) underwent subcutaneous implant of a slow-release insulin (one pellet of […] Canada, Inc.) or sham operation. […] Blood was taken from the tail vein of each rat at specified time intervals and centrifuged to collect plasma. […] Wako Pure Chemical Industries, Ltd.)

Zucker fatty rats [9] = test: Combination treatment of compound A and sitagliptin in diabetic rats (oral glucose loading); details: fasted Zucker fatty rats; single oral dose compound A 1 mg/kg, sitagliptin 0.3 mg/kg, alone or combined; glucose 2 g/kg one hour later; up to 120 minutes; mean ± standard error
Procedure: Eight male Zucker fatty rats/group (10-week old) were fasted and orally administered with single doses of compound A (1 mg/kg) and a DPP-IV inhibitor, sitagliptin (0.3 mg/kg), either alone or in combination. […] Wako Pure Chemical Industries, Ltd.)

Zucker fatty rats [10] = test: Combination treatment of compound A and vildagliptin in diabetic rats (oral glucose loading); details: fasted Zucker fatty rats; single oral dose compound A 1 mg/kg, vildagliptin 3 mg/kg, alone or combined; glucose 2 g/kg one hour later; up to 120 minutes; mean ± standard error
Procedure: One hour after the administration, the rats were orally administered with glucose solutions (2 g/kg); blood was taken from the tail vein of each rat at specified time intervals and centrifuged to collect plasma. Plasma glucose levels were measured by mutarotase-GOD method with a glucose assay kit (Glucose C2 Test Wako; Wako Pure Chemical Industries, Ltd.)

Zucker fatty rats [11] = test: Combination treatment of compound A and voglibose in diabetic rats (soluble starch loading); details: fasted Zucker fatty rats; single oral dose compound A 1 mg/kg, voglibose 0.1 mg/kg, alone or combined; soluble starch 2 g/kg one minute later; up to 120 minutes; mean ± standard error
Procedure: Six male Zucker fatty rats (10-week old) were fasted and orally administered with single doses of compound A (1 mg/kg) and an α-glucosidase inhibitor, voglibose (0.1 mg/kg), either alone or in combination. […] Wako Pure Chemical Industries, Ltd.)

Zucker fatty rats [12] = test: Combination treatment of compound A and miglitol in diabetic rats (soluble starch loading); details: fasted Zucker fatty rats; single oral dose compound A 0.5 mg/kg, miglitol 3 mg/kg, alone or combined; soluble starch 2 g/kg one minute later; up to 120 minutes; mean ± standard error
Procedure: Six male Zucker fatty rats (9-week old) were fasted and orally administered with single doses of compound A (0.5 mg/kg) and an α-glucosidase inhibitor, miglitol (3 mg/kg), either alone or in combination. One minute after the administration, the rats were orally administered with soluble starch solutions (2 g/kg); blood was taken from the tail vein of each rat at specified time intervals and centrifuged to collect plasma. Plasma glucose levels were measured by mutarotase-GOD method with a glucose assay kit (Glucose C2 Test Wako; Wako Pure Chemical Industries, Ltd.)

[13] = metformin hydrochloride 100 mg/kg, alone or with compound A 3 mg/kg
[14] = metformin hydrochloride 300 mg/kg, alone or with compound A 3 mg/kg

For `C[C@H]1O[C@H](O[C@H]2[C@H](O)[C@@H](O)[C@@H](O[C@H]3[C@H](O)[C@@H](O)C(O)O[C@@H]3CO)O[C@@H]2CO)[C@H](O)[C@@H](O)[C@@H]1N[C@H]1C=C(CO)[C@@H](O)[C@H](O)[C@H]1O` (stereo partly drawn) [Acarbose, acarbose], the “Δ plasma glucose AUC” value (Zucker fatty rats [1]) was 10192.8 ± 913.6 mg·min/dL.

For `CCOc1ccc(Cc2cc([C@@H]3S[C@H](CO)[C@@H](O)[C@H](O)[C@H]3O)c(OC)cc2C)cc1` [Compound A, (1S)-1,5-anhydro-1-[5-(4-ethoxybenzyl)-2-methoxy-4-methylphenyl]-1-thio-D-glucitol], the “Change in GHb (%)” value (db/db mice [2]; compound A 3 mg/kg once daily oral, alone, GHb after minus before) was 0.14 ± 0.39%, the “Fasting plasma glucose level” value (db/db mice [2]; compound A 3 mg/kg once daily oral, alone) was 275.0 ± 28.7 mg/dL and the “Change in plasma IRI level” value (db/db mice [2]; compound A 3 mg/kg once daily oral, alone, after minus before) was -5.01 ± 2.11 ng/mL. The “Δ plasma glucose AUC” value [3] was -310.3 ± 157.2 mg·h/dL, the “Δ plasma glucose AUC” value (KKAy mice [4]) was -83.0 ± 14.6 mg·h/dL and the “Δ plasma glucose AUC” value (C57BL mice) was -4.2 ± 8.5 mg·h/dL. The “Plasma glucose level at 4 wk of administration” value (KKAy mice [5]) was 154.8 ± 5.9 mg/dL, the “Plasma glucose level at 8 wk of administration” value (KKAy mice [5]) was 168.6 ± 2.2 mg/dL and the “Δ plasma glucose AUC” value [6] was -130.1 ± 164.9 mg·h/dL. The “Change in GHb (%)” value (db/db mice [7]) was 3.15 ± 0.16%, the “Non-fasting plasma glucose level” value (db/db mice [7]) was 607.9 ± 21.6 mg/dL and the “Change in plasma IRI level” value (db/db mice [7]) was -27.81 ± 4.41 ng/dL. For the same compound, the “Plasma glucose AUC” value [8] was 3983.4 ± 194.5 mg·h/dL, the “Δ plasma glucose AUC” value (Zucker fatty rats [9]) was 11239.9 ± 617.8 mg·min/dL and the “Δ plasma glucose AUC” value (Zucker fatty rats [10]) was 11690.1 ± 807.9 mg·min/dL. For the same compound, the “Δ plasma glucose AUC” value (Zucker fatty rats [11]) was 10940.4 ± 952.7 mg·min/dL, the “Δ plasma glucose AUC” value (Zucker fatty rats [12]) was 11655.9 ± 1021.8 mg·min/dL and the “Δ plasma glucose AUC” value (Zucker fatty rats [1]) was 9861.6 ± 1076.0 mg·min/dL.

For `COc1ccc(Cl)cc1C(=O)NCCc1ccc(S(=O)(=O)NC(=O)NC2CCCCC2)cc1` [Glibenclamide, glibenclamide], the “Δ plasma glucose AUC” value [6] was 140.3 ± 107.2 mg·h/dL.

With `CCC1=C(C)CN(C(=O)NCCc2ccc(S(=O)(=O)NC(=O)N[C@H]3CC[C@H](C)CC3)cc2)C1=O` [Glimepiride, glimepiride] the “Δ plasma glucose AUC” value (KKAy mice [4]) was -118.6 ± 20.2 mg·h/dL, the “Δ plasma glucose AUC” value (C57BL mice) was -104.0 ± 9.3 mg·h/dL and the “Plasma glucose level at 4 wk of administration” value (KKAy mice [5]) was 137.6 ± 13.3 mg/dL. For the same compound, the “Plasma glucose level at 8 wk of administration” value (KKAy mice [5]) was 160.4 ± 8.2 mg/dL.

For `CN(C)C(=N)N=C(N)N` [Metformin hydrochloride, metformin hydrochloride], the “Fasting plasma glucose level” value (db/db mice [2]; [13]) was 378.3 ± 33.4 mg/dL, the “Change in GHb (%)” value (db/db mice [2]; metformin hydrochloride 100 mg/kg, alone or with compound A 3 mg/kg, oral) was 2.08 ± 0.33% and the “Fasting plasma glucose level” value (db/db mice [2]; [14]) was 254.0 ± 24.7 mg/dL. The “Change in GHb (%)” value (db/db mice [2]; metformin hydrochloride 300 mg/kg, alone or with compound A 3 mg/kg, oral) was 1.70 ± 0.23%, the “Change in plasma IRI level” value (db/db mice [2]; [13]) was -9.81 ± 0.91 ng/mL and the “Change in plasma IRI level” value (db/db mice [2]; [14]) was -7.36 ± 1.29 ng/mL.

In the case of `OCCN1C[C@H](O)[C@@H](O)[C@H](O)[C@H]1CO` [Miglitol, miglitol], the “Δ plasma glucose AUC” value (Zucker fatty rats [12]) is reported as 8909.4 ± 1390.0 mg·min/dL.

With `CCc1ccc(CCOc2ccc(CC3SC(=O)NC3=O)cc2)nc1` (stereo not drawn) [Pioglitazone, pioglitazone] the “Change in GHb (%)” value (db/db mice [7]) was 3.04 ± 0.36%, the “Non-fasting plasma glucose level” value (db/db mice [7]) was 555.2 ± 56.9 mg/dL and the “Change in plasma IRI level” value (db/db mice [7]) was -43.29 ± 3.83 ng/dL.

For `N[C@@H](CC(=O)N1CCn2c(nnc2C(F)(F)F)C1)Cc1cc(F)c(F)cc1F` [Sitagliptin, sitagliptin], the “Δ plasma glucose AUC” value (Zucker fatty rats [9]) was 13881.4 ± 1292.9 mg·min/dL.

With `OCC(CO)N[C@H]1C[C@](O)(CO)[C@@H](O)[C@H](O)[C@H]1O` [Voglibose, voglibose] the “Δ plasma glucose AUC” value (Zucker fatty rats [11]) was 12395.5 ± 543.0 mg·min/dL.
